The target in data set [1] is Sigma intracellular receptor 2 (Homo sapiens, UniProt Q5BJF2). The data set can be described thus: Selectivity interaction (GPCR panel (PDSP screen)) EUB0000310b TMEM97.
In data set [2] the target is Interferon-induced, double-stranded RNA-activated protein kinase (Homo sapiens) (UniProt P19525). The experiment in a line: Selectivity interaction (KinomeScan (DiscoverX)) EUB0000310b EIF2AK2.
Data set [3] deals with Serine/threonine-protein kinase 38-like (Homo sapiens, UniProt Q9Y2H1). The data set can be described thus: Selectivity interaction (KinomeScan (DiscoverX)) EUB0000310b STK38L.
For data set [4], the target named is STE20/SPS1-related proline-alanine-rich protein kinase (Homo sapiens) (UniProt Q9UEW8). The experiment in a line: Selectivity interaction (KinomeScan (DiscoverX)) EUB0000310b STK39.
In data set [5] the target is Voltage-dependent L-type calcium channel subunit alpha-1C (Homo sapiens, UniProt Q13936). The data set can be described thus: Selectivity interaction (Eurofins Panlabs panel (receptors, ion channel, and other enzymes)) EUB0000310b CACNA1C. Conditions: at 10 µM.
The target of data set [6] is Serine/threonine-protein kinase WNK4 (Homo sapiens) (UniProt Q96J92). The experiment in a line: Selectivity interaction (KinomeScan (DiscoverX)) EUB0000307b WNK4. The settings on record: at 1 µM.
Data set [7] deals with Epithelial discoidin domain-containing receptor 1 (Homo sapiens, UniProt Q08345). The data set can be described thus: Selectivity interaction (KinomeScan (DiscoverX)) EUB0000307b DDR1. The settings on record: at 1 µM.
The target of data set [8] is Prostaglandin E2 receptor EP4 subtype (Homo sapiens, UniProt P35408). The experiment in a line: Selectivity interaction (Eurofins-Panlabs radioligand binding assay ) EUB0000307b PTGER4.
The next data set has as its target T1, Adenosine receptor A3 (Homo sapiens, UniProt P0DMS8).
T1 sequence (P0DMS8 whole entry): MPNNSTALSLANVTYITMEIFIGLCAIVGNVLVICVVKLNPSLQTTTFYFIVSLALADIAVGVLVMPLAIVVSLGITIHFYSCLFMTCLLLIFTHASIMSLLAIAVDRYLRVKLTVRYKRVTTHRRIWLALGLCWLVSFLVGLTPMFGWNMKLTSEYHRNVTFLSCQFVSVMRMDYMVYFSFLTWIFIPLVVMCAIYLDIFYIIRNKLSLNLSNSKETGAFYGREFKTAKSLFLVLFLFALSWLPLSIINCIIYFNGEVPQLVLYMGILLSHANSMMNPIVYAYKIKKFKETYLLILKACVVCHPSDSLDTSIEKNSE
The experiment in a line: Selectivity interaction (Eurofins-Panlabs radioligand binding assay ) EUB0000307b ADORA3.

For data set [9], the target named is Sodium-dependent dopamine transporter (Homo sapiens, UniProt Q01959). The experiment in a line: Selectivity interaction (GPCR panel (PDSP screen)) EUB0000541a SLC6A3.
Data set [10] has as its target Serine/threonine-protein kinase mTOR (Homo sapiens) (UniProt P42345). The data set can be described thus: Selectivity interaction (KinomeScan (DiscoverX)) EUB0000727a MTOR. The settings on record: at 100 nM.
For data set [11], the target named is Serine/threonine-protein kinase PAK 2 (Homo sapiens) (UniProt Q13177). The experiment in a line: Selectivity interaction (KinomeScan (DiscoverX)) EUB0000727a PAK2.
Data set [12] concerns the target SRSF protein kinase 1 (Homo sapiens) (UniProt Q96SB4). The data set can be described thus: Selectivity interaction (KinomeScan (DiscoverX)) EUB0000727a SRPK1. Conditions: at 100 nM.
The next data set concerns the target D(1B) dopamine receptor (Homo sapiens, UniProt P21918). The experiment in a line: Selectivity interaction (GPCR panel (PDSP screen)) EUB0000727a DRD5.
Data set [13] deals with T2, Gamma-aminobutyric acid receptor subunit alpha-1 (Homo sapiens, UniProt P14867).
T2 sequence (P14867 whole entry): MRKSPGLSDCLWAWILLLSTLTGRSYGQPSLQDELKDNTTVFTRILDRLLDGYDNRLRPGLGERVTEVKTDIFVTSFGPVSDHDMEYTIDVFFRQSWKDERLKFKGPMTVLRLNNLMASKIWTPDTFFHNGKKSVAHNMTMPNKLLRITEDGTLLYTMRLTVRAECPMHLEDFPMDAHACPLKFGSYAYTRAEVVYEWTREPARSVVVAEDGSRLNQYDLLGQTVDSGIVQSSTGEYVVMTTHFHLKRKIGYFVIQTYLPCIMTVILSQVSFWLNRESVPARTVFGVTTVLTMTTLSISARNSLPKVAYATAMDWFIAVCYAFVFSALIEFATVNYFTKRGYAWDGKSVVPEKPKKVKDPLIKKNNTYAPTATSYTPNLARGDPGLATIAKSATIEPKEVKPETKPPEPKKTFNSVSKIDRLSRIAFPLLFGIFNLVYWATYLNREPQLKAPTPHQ
The data set can be described thus: Selectivity interaction (GPCR panel (PDSP screen)) EUB0000301b GABRA1.

In data set [14] the target is eIF-2-alpha kinase GCN2 (Homo sapiens) (UniProt Q9P2K8). The data set can be described thus: Selectivity interaction (KinomeScan (DiscoverX)) EUB0000301b EIF2AK4. Conditions: at 1 µM.
Data set [15] concerns the target Cyclin-dependent kinase 8 (Homo sapiens) (UniProt P49336). The experiment in a line: Selectivity interaction (KinomeScan (DiscoverX)) EUB0000301b CDK8. Conditions: at 1 µM.

Each structure is given as a SMILES string.

What is called IC50 is the concentration that gives 50% inhibition. Read a high IC50 as weaker potency in that assay. Broadly, the Ki is the dissociation constant of the complex between target and ligand, obtained from inhibition or displacement. Read a high Ki as a looser hold on the target.

Prostaglandin E2 receptor EP4 subtype, sequence (P35408 whole entry): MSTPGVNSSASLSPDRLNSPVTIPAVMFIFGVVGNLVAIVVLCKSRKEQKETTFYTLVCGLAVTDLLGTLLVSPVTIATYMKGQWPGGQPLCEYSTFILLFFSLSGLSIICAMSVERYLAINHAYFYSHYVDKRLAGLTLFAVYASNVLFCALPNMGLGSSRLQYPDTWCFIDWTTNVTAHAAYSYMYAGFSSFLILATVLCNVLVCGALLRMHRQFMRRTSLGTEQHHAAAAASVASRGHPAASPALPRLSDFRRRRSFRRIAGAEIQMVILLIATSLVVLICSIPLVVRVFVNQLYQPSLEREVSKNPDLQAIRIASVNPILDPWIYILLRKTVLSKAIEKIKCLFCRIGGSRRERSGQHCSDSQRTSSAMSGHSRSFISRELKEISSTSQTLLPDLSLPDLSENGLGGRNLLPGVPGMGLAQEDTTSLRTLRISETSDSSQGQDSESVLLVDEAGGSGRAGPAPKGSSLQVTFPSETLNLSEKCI
eIF-2-alpha kinase GCN2 (Homo sapiens), sequence (Q9P2K8 whole entry): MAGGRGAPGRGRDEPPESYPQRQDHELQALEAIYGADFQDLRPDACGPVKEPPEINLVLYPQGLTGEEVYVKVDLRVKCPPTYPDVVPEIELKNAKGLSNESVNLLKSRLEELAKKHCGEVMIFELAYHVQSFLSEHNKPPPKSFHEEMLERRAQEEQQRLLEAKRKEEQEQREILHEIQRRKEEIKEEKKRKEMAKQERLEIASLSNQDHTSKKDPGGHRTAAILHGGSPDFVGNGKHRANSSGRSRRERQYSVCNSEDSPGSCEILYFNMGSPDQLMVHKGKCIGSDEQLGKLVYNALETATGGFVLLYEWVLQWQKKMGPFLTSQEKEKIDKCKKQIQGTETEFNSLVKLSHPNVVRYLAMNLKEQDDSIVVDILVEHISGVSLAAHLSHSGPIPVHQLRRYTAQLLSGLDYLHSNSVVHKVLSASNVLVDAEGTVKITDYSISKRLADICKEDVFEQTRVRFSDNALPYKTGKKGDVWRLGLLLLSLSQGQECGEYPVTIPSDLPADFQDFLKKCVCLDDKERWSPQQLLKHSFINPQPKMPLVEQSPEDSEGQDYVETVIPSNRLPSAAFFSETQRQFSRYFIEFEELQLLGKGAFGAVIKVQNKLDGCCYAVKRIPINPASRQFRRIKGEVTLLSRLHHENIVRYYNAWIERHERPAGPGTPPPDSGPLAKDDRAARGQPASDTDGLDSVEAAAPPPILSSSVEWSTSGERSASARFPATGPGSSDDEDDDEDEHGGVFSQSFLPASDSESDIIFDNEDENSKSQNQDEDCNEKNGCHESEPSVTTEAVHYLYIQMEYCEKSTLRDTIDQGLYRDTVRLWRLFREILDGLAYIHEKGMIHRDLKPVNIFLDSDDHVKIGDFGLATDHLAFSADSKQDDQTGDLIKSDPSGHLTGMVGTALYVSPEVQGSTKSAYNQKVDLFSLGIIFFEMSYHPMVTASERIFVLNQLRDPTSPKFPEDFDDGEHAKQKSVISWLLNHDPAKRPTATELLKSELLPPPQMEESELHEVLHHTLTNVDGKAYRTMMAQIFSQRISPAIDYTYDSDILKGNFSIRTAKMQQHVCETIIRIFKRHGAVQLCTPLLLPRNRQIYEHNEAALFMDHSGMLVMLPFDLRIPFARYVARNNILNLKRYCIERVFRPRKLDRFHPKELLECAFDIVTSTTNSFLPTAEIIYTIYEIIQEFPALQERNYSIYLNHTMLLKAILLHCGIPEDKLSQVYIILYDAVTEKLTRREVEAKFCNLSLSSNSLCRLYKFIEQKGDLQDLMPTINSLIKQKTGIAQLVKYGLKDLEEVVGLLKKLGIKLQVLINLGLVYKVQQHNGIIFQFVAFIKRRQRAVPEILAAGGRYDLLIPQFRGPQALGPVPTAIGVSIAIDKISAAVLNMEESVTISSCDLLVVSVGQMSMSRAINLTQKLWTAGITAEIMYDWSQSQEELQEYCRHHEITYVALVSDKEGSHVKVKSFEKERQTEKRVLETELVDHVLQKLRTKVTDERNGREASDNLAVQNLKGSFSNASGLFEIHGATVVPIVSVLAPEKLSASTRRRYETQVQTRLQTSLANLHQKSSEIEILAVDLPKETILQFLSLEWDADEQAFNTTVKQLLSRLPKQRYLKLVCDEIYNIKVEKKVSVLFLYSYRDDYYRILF
SRSF protein kinase 1 (Homo sapiens), sequence (Q96SB4 whole entry): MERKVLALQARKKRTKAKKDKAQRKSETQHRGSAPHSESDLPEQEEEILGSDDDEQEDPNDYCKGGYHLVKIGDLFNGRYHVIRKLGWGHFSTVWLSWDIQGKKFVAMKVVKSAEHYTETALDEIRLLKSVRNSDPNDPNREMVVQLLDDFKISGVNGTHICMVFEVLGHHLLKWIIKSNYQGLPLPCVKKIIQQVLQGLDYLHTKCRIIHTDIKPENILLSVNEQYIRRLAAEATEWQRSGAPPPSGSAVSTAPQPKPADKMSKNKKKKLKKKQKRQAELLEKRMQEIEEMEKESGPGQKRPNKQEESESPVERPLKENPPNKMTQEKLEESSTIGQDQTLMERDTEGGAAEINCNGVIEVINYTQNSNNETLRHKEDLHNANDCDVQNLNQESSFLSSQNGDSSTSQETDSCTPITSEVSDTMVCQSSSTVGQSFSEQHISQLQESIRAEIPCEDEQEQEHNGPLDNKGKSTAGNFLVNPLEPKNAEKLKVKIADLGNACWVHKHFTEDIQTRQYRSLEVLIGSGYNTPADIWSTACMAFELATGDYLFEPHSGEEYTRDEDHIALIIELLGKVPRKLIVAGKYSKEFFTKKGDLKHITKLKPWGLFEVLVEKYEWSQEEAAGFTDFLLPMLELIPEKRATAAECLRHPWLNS
Voltage-dependent L-type calcium channel subunit alpha-1C, sequence (Q13936 whole entry): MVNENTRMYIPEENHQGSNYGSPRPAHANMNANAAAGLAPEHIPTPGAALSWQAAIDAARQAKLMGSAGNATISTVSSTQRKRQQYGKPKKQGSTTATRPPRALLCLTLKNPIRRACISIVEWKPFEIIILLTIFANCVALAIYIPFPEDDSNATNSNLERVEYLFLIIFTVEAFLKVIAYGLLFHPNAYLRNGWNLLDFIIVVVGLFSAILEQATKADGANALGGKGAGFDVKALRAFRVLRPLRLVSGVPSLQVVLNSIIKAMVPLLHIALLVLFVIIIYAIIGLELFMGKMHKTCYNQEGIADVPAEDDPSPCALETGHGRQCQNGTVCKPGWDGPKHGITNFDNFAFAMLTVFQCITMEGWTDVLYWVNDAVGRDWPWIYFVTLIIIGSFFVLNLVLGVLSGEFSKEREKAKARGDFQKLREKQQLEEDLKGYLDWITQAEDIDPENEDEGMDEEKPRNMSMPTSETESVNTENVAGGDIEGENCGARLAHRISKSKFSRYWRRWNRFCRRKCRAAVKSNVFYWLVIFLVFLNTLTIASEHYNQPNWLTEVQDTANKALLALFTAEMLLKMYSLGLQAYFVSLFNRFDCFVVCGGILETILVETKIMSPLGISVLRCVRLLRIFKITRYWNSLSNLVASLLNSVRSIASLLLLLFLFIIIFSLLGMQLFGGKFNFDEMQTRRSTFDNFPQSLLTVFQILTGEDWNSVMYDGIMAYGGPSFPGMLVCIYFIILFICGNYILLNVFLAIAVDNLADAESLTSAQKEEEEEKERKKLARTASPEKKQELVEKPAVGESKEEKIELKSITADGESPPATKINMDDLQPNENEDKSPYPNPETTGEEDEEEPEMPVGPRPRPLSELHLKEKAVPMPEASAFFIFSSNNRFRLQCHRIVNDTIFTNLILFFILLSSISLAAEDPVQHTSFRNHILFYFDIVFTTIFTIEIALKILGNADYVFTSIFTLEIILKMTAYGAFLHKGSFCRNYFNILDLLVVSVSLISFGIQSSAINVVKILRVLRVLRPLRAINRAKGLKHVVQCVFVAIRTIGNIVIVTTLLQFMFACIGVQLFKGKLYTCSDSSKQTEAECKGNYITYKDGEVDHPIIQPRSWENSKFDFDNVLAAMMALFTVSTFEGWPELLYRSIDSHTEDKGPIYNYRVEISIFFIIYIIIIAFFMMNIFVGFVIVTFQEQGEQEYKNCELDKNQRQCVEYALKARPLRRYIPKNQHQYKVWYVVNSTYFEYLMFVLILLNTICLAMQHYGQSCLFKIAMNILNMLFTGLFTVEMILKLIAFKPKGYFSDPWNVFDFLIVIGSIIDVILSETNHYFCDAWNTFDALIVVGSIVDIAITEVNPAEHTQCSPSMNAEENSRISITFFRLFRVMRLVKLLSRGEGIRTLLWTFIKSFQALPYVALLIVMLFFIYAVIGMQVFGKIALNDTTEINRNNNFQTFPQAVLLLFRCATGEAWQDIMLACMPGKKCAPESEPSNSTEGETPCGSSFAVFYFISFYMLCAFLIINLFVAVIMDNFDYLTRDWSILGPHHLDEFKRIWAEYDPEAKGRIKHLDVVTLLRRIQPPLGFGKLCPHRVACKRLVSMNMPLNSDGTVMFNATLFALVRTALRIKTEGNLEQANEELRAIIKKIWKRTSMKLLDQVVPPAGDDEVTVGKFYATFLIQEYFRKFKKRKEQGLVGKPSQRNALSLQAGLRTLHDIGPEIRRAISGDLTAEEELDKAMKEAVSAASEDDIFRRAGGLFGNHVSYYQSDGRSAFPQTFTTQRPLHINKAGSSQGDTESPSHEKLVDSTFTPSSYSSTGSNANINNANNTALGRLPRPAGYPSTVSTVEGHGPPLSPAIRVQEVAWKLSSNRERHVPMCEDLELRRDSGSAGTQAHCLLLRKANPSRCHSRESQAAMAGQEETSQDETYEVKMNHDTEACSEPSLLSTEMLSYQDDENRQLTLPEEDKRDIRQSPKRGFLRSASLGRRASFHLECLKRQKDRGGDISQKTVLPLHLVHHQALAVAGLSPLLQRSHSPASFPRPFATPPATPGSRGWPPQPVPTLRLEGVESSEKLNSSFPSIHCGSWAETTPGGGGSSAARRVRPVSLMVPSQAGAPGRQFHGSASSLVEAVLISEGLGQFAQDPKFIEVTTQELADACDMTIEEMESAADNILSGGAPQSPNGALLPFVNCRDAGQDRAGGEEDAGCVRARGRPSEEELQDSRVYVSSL

Regarding `C[C@H](NC(=O)c1cnc2n1[C@](C)(Cc1ccc(C#N)cc1)C(=O)N2c1cc(Cl)c(F)c(Cl)c1)C(=O)NC1(c2ccccn2)CC1` [BI 1950], the % of inhibition in data set [1] came to 26%; in [5], 72%. The results for the % of control in [2], in data set [3] and in data set [4] were 34%, 49% and 24%, respectively.
For the compound `Cc1c(NC(=O)c2cc(C(N)=O)nc3cc(F)ccc23)c(C(F)(F)F)nn1Cc1ccc(C#N)cc1` [BAY-876], the results for the % of control in data set [6] and in [7] were 0% and 1.5%, respectively. In addition, the half-inhibitory concentration (IC50) amounted to 1120 nM in data set [8] and 1140 nM at Adenosine receptor A3.
In the case of `O=C(Nc1ccc(-n2nc(-c3cccnc3)cc2C(F)(F)F)cn1)c1ccc(-c2ccccc2)c(F)c1` [BI 2049], the Ki in [9] was over 10000 nM.
For the compound `Cn1nc(C(=O)NCc2ccc(C(=O)O)cc2)cc1-c1ccc2[nH]ccc2c1` [BI 4395], the % of control in [10] was 31%; in data set [11], 23%; in [12], 33%. The same compound came in with a Ki at D(1B) dopamine receptor of over 10000 nM.
Compound `O=c1nc(-c2ccccn2)sc2ccccc12` [BTZO-1] displayed an inhibition constant Ki in [13] of 934 nM. The % of control in [14] was found to be 47%; in data set [15] it was 36%.
